Measured values: patent US8952024B2, “Herbicidal pyrimidone derivatives” (E I du Pont de Nemours and Company, priority 2009, dated 2015)

What was measured:
Type in all cases: in vivo
kochia (Kochia scoparia) = experiment: Test B pre-/postemergence plant response; settings: for Kochia plant response rating (0 to 100 scale): 62 g ai/ha, 0 is no effect, 13 to 15 days
Procedure, shortened: (§1)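 Seeds were sown in loam soil/sand blend and treated preemergence with compound in non-phytotoxic solvent mixture containing surfactant; postemergence sprays, same formulation, went onto plants 2 to 18 cm (1- to 4-leaf stage) in peat-based planting medium. Greenhouse 13 to 15 days, then visual rating versus untreated controls, 0 (no effect) to 100 (complete control).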

[1] = system: wheat (Triticum aestivum); experiment: Test B pre-/postemergence plant response; settings: for Wheat plant response rating (0 to 100 scale): 62 g ai/ha, postemergence, 0 is no effect, 100 is complete control, 13 to 15 days; for Plant response rating, Wheat: Postemergence, 125 g ai/ha, scale 0 to 100 (0 no effect, 100 complete control)
Procedure, shortened: as §1

[2] = system: giant foxtail (Setaria faberii); experiment: Test B pre-/postemergence plant response; settings: for Foxtail, Giant plant response rating (0 to 100 scale): 62 g ai/ha, 0 is no effect, 13 to 15 days
Procedure, shortened: as §1

[3] = system: green foxtail (Setaria viridis); experiment: Test B pre-/postemergence plant response; settings: for Foxtail, Green plant response rating (0 to 100 scale): 62 g ai/ha, 0 is no effect, 13 to 15 days
Procedure, shortened: as §1

[4] = system: goosegrass (Eleusine indica); experiment: Test B pre-/postemergence plant response; settings: for Goosegrass plant response rating (0 to 100 scale): 62 g ai/ha, 0 is no effect, 13 to 15 days
Procedure, shortened: as §1

[5] = system: morningglory (Ipomoea coccinea); experiment: Test B pre-/postemergence plant response; settings: for Morningglory plant response rating (0 to 100 scale): 62 g ai/ha, 0 is no effect, 13 to 15 days
Procedure, shortened: as §1

[6] = system: pigweed (Amaranthus retroflexus); experiment: Test B pre-/postemergence plant response; settings: for Pigweed plant response rating (0 to 100 scale): 62 g ai/ha, 0 is no effect, 13 to 15 days
Procedure, shortened: as §1

[7] = system: cocklebur (Xanthium strumarium); experiment: Test B pre-/postemergence plant response; settings: for Cocklebur plant response rating (0 to 100 scale): 62 g ai/ha, 0 is no effect, 13 to 15 days
Procedure, shortened: as §1

[8] = system: downy bromegrass (Bromus tectorum); experiment: Test B pre-/postemergence plant response; settings: for Bromegrass, Downy plant response rating (0 to 100 scale): 62 g ai/ha, 0 is no effect, 13 to 15 days
Procedure, shortened: as §1

[9] = system: morningglory (Ipomoea spp.); experiment: Test A pre-/postemergence plant response
Procedure, shortened: (§2)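 Plants grown from seed in a loam soil and sand mix received test compounds both as a preemergence soil spray and, at the same time, as a postemergence spray at the one- to two-leaf stage. Injury was judged visually against untreated controls roughly ten days later, 0 meaning no effect and 100 complete control.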

[10] = system: wheat (Triticum aestivum); experiment: Test A pre-/postemergence plant response
Procedure, shortened: as §2

[11] = system: velvetleaf (Abutilon theophrasti); experiment: Test A pre-/postemergence plant response
Procedure, shortened: as §2

[12] = system: large crabgrass (Digitaria sanguinalis); experiment: Test A pre-/postemergence plant response
Procedure, shortened: as §2

[13] = 31 g ai/ha, postemergence, scale 0 to 100, 0 is no effect, 100 is complete control
[14] = postemergence, 100 is complete control
[15] = Postemergence, 125 g ai/ha, scale 0 to 100 (0 no effect, 100 complete control)
[16] = Postemergence, 250 g ai/ha, scale 0 to 100 (0 no effect, 100 complete control)
[17] = Postemergence, 125 g ai/ha, 0 to 100 scale where 0 is no effect and 100 is complete control
[18] = Postemergence, 500 g ai/ha, 0 to 100 scale, 0 = no effect, 100 = complete control, approx. ten days
[19] = Preemergence, 125 g ai/ha, 0 to 100 scale, 0 = no effect, 100 = complete control
[20] = Preemergence, 500 g ai/ha, visual injury, 0 to 100 scale (0 no effect, 100 complete control), approx. ten days

O=C1CCCC(O)=C1C(=O)c1cnc(-c2cccs2)n(CC2CCCO2)c1=O (stereo not shown) [Compound 109]
5: Wheat plant response rating (0 to 100 scale) [1] | Plant response rating, Wheat [1] | Plant response rating, Bromegrass, Downy [8, 15] | Plant response rating, Bromegrass, Downy [8, 16]
20: Plant response rating, Foxtail, Green [3, 13]
100: Plant response rating, Morningglory [5, 15] | Plant response rating, Morningglory [5, 16] | Plant response rating, Pigweed [6, 13] | Pigweed plant response rating (0 to 100 scale) [6, 14] | Plant response rating, Pigweed [6, 15] | Plant response rating, Pigweed [6, 16] | Plant response rating, Cocklebur [7, 15] | Plant response rating, Cocklebur [7, 16] | Plant response rating, Morningglory [9, 18] | Plant response rating, Velvetleaf [11, 17] | Plant response rating, Velvetleaf [11, 18] | Plant response rating, Velvetleaf [11, 20] | Plant response rating, Crabgrass, Large [12, 18]
0: Plant response rating, Bromegrass, Downy [8, 13] | Bromegrass, Downy plant response rating (0 to 100 scale) [8, 14] | Plant response rating, Wheat [10, 17] | Plant response rating, Wheat [10, 18] | Plant response rating, Wheat [10, 19] | Plant response rating, Wheat [10, 20]
90: Plant response rating, Foxtail, Giant [2, 16] | Plant response rating, Morningglory [9, 17] | Plant response rating, Crabgrass, Large [12, 17] | Plant response rating, Crabgrass, Large [12, 20]
70: Plant response rating, Kochia (kochia (Kochia scoparia); [13]) | Plant response rating, Foxtail, Giant [2, 13] | Plant response rating, Morningglory [5, 13] | Plant response rating, Morningglory [9, 20] | Plant response rating, Velvetleaf [11, 19]
75: Kochia plant response rating (0 to 100 scale) (kochia (Kochia scoparia); [14]) | Foxtail, Giant plant response rating (0 to 100 scale) [2, 14] | Goosegrass plant response rating (0 to 100 scale) [4, 14] | Plant response rating, Cocklebur [7, 13]
40: Plant response rating, Morningglory [9, 19] | Plant response rating, Crabgrass, Large [12, 19]
85: Plant response rating, Kochia (kochia (Kochia scoparia); [15]) | Plant response rating, Foxtail, Green [3, 15] | Plant response rating, Goosegrass [4, 16]
98: Plant response rating, Kochia (kochia (Kochia scoparia); [16]) | Plant response rating, Foxtail, Green [3, 16] | Morningglory plant response rating (0 to 100 scale) [5, 14] | Cocklebur plant response rating (0 to 100 scale) [7, 14]
80: Plant response rating, Foxtail, Giant [2, 15] | Foxtail, Green plant response rating (0 to 100 scale) [3, 14] | Plant response rating, Goosegrass [4, 15]
65: Plant response rating, Goosegrass [4, 13]

COCCn1c(-c2ccco2)ncc(C(=O)C2=C(O)CCCC2=O)c1=O [Compound 111]
95: Plant response rating, Pigweed [6, 13]
70: Plant response rating, Foxtail, Giant [2, 16] | Plant response rating, Foxtail, Green [3, 16] | Plant response rating, Goosegrass [4, 13] | Goosegrass plant response rating (0 to 100 scale) [4, 14]
100: Kochia plant response rating (0 to 100 scale) (kochia (Kochia scoparia); [14]) | Plant response rating, Kochia (kochia (Kochia scoparia); [15]) | Plant response rating, Kochia (kochia (Kochia scoparia); [16]) | Plant response rating, Morningglory [5, 13] | Morningglory plant response rating (0 to 100 scale) [5, 14] | Plant response rating, Morningglory [5, 15] | Plant response rating, Morningglory [5, 16] | Pigweed plant response rating (0 to 100 scale) [6, 14] | Plant response rating, Pigweed [6, 15] | Plant response rating, Pigweed [6, 16] | Plant response rating, Cocklebur [7, 15] | Plant response rating, Cocklebur [7, 16] | Plant response rating, Morningglory [9, 17] | Plant response rating, Morningglory [9, 18] | Plant response rating, Velvetleaf [11, 17] | Plant response rating, Velvetleaf [11, 18] | Plant response rating, Velvetleaf [11, 20] | Plant response rating, Crabgrass, Large [12, 20]
60: Plant response rating, Foxtail, Giant [2, 13] | Foxtail, Green plant response rating (0 to 100 scale) [3, 14]
0: Wheat plant response rating (0 to 100 scale) [1] | Plant response rating, Bromegrass, Downy [8, 13] | Bromegrass, Downy plant response rating (0 to 100 scale) [8, 14] | Plant response rating, Wheat [10, 17] | Plant response rating, Wheat [10, 18] | Plant response rating, Wheat [10, 19] | Plant response rating, Wheat [10, 20]
5: Plant response rating, Wheat [1] | Plant response rating, Bromegrass, Downy [8, 15]
50: Plant response rating, Morningglory [9, 19]
40: Plant response rating, Foxtail, Green [3, 13]
85: Plant response rating, Goosegrass [4, 15] | Plant response rating, Goosegrass [4, 16]
98: Plant response rating, Cocklebur [7, 13] | Cocklebur plant response rating (0 to 100 scale) [7, 14]
65: Foxtail, Giant plant response rating (0 to 100 scale) [2, 14] | Plant response rating, Foxtail, Giant [2, 15] | Plant response rating, Foxtail, Green [3, 15]
10: Plant response rating, Bromegrass, Downy [8, 16]
80: Plant response rating, Kochia (kochia (Kochia scoparia); [13]) | Plant response rating, Morningglory [9, 20]
90: Plant response rating, Velvetleaf [11, 19] | Plant response rating, Crabgrass, Large [12, 17] | Plant response rating, Crabgrass, Large [12, 18] | Plant response rating, Crabgrass, Large [12, 19]
